In patent publication US20230414628A1, “METHODS FOR TREATING DISEASES MEDIATED BY GLUTATHIONE PEROXIDASE 4” (priority 2022, published 2023) one finds EC50 data, which are given here for 47 compounds.

Structures can show the parent of a compound that is named as a salt.

In one assay the test system is RAG01 (derived from fibroblasts of a patient diagnosed with SSMD) fibroblasts. Put plainly: CellTiter-Glo concentration response in RAG01 fibroblasts. The format is cell-based, human. To be noted: Homo sapiens, Fibroblast; RAG01 cell line; 72 hours incubation; CellTiter-Glo; percentage effect normalized to vehicle control; 10-point CRC from 10 μM; read-out: EC50. Here is the method: Compounds described herein were tested in three cell lines, RAG01 (derived from fibroblasts of a patient diagnosed with SSMD) fibroblasts, RAG02 (derived from fibroblasts of the patient's parent), and GM09503 (from supplier Corriell) (derived from a healthy donor) to each generate 10-point concentration response curves (CRC). The three cell lines were each thawed seven (7) days prior to seeding. The RAG01 cells were thawed in a medium supplemented with a-tocopherol. Cells were passaged four (4) days prior to the seeding. The α-tocopherol was removed from the RAG01 cells. Cells were then seeded at 900 cells per well in 384-well plates. Two replicates were prepared for two independent (replicate) experiments. All plates were then incubated with compounds described herein for 72 hours, prior to CellTiter-Glo assay. […] The assay was run using the CellTiter-Glo (Promega) following manufacturer's guidelines and luminescent spectrophotometric reading on PHERAstar FSX (BMG Labtech). A 0.1% dimethylsulfoxide (DMSO) was used as a blank (vehicle control); and a 1 μM Ferrostatin-1 was used as a control (CTRL).
The raw data was analyzed using Activity Base® software. The compounds were evaluated by efficacy (percentage effect) normalized to the vehicle control. The percentage effect (PE) was determined from the signal increase in comparison to the vehicle control according to the formula below: […]
The percentage effect values were then plotted against log concentration of the drug to generate a concentration response curve. The curves were fitted using a four-parameter fit, and curve tops and hillslopes were fixed where required and justified.
As for `CC(=O)Oc1cc(C(C)C)c(OCCN(C)C)cc1C` [compound 30, Moxisylyte], the EC50 amounted to 739 nM.
On the same count and under the same terms, the figure for `Cc1cc(C(C)(C)C)c(O)c(C)c1CC1=NCCN1` [compound 31, oxymetazoline] is 1460 nM.
For `CN1CCN2c3c(cccc31)[C@@H]1CN(CCCC(=O)c3ccc(F)cc3)CC[C@@H]12` [compound 32, lumateperone], the EC50 was found to be 636 nM.
Same read-out and setting: for `Clc1ccc2c(c1)N=C(N1CCNCC1)c1ccccc1N2` [compound 34, desmethylclozapine] the value was 2660 nM.
Consider `CC(C)(C)[C@@]1(O)CCN2C[C@@H]3c4ccccc4CCc4cccc(c43)[C@H]2C1` [compound 35, butaclamol], for which the EC50 stood at 2570 nM.
The same measure, in the same setting: the figure for `CN1CCc2cccc3c2[C@H]1Cc1ccc(O)c(O)c1-3` [compound 36, apomorphine] is 140 nM; for `Oc1cc2c(cc1O)C(c1ccccc1)CNCC2` (centres unmarked) [compound 38, SKF-38,393] it is 4310 nM; for `CCCN(C/C=C/I)C1CCc2ccc(O)cc2C1` (centres unmarked) [compound 40, 7-hydroxy-PIPAT] it is 2740 nM.
The same measure, in the same setting: the figure for `CCCN(CCc1cccs1)[C@H]1CCc2c(O)cccc2C1` [compound 41, rotigotine] is 3950 nM.
As for `CCOC(=O)Nc1ccc2c(c1)N(C(=O)CCN(CC)CC)c1ccccc1S2` [compound 42, ethacizine], the EC50 was determined as 478 nM.
Same read-out and setting: the figure for `CC(CN(C)C)CN1c2ccccc2Sc2ccc(C#N)cc21` (centres unmarked) [compound 43, cyamemazine] is 1390 nM; for `OCCN1CCN(CCCN2c3ccccc3Sc3ccc(Cl)cc32)CC1` [compound 44, perphenazine] it is 1410 nM; for `O=C(CN1CCN(Cc2ccc3c(c2)OCO3)CC1)N1c2ccccc2Sc2ccccc21` [compound 46, fenoverine] it is 1500 nM.
Still for that read-out and setting: the figure for `CC(CN(C)C)CN1c2ccccc2Sc2ccccc21` (centres unmarked) [compound 47, trimeprazine] is 1670 nM; for `CN1CCCC(CN2c3ccccc3Sc3ccccc32)C1` (centres unmarked) [compound 48, mepazine] it is 1840 nM.
On the same count and under the same terms, the figure for `COc1ccc2c(c1)N(C[C@H](C)CN(C)C)c1ccccc1S2` [compound 49, Levomepromazine] is 3210 nM; for `COc1ccc2cccc(N3CCN(CCNC(=O)c4ccc(F)cc4)CC3)c2c1` [compound 50, S-14,506] it is 928 nM; for `Cc1[nH]c2ccc(Cl)cc2c1C1=CCNCC1` [compound 51, EMD-386088] it is 1350 nM.
As for `CCCN(C/C=C/I)C1CCc2cccc(O)c2C1` (centres unmarked) [compound 52, 8-hydroxy-PIPAT], the EC50 was determined as 2380 nM.
Same read-out and setting: for `COc1ccc(CC2NCCc3c2[nH]c2ccc(C)cc32)c(Cl)c1OC` (centres unmarked) [compound 53, LY-266,097] the value was 2710 nM.
On the same count and under the same terms, the figure for `Oc1ccc2c3c1OC1c4c(c5ccccc5n4Cc4ccccc4)C[C@@]4(O)C(C2)N(CC2CC2)CC[C@]314` (some centres unmarked) [compound 54, N-Benzylnaltrindole HCl] is 381 nM; for `Oc1ccc2c3c1O[C@H]1c4oc5ccccc5c4C[C@@]4(O)[C@@H](C2)N(CC2CC2)CC[C@]314` [compound 55, Naltriben] it is 1320 nM.
On the same count and under the same terms, the figure for `C=C(C)CN1CC[C@]23c4c5ccc(O)c4OC2c2[nH]c4ccccc4c2C[C@@]3(O)[C@H]1C5` (some centres unmarked) [compound 56, SDM25N] is 1410 nM; for `Oc1ccc2c3c1O[C@H]1c4[nH]c5ccccc5c4C[C@@]4(O)[C@@H](C2)N(CC2CC2)CC[C@]314` [compound 57, Naltrindole] it is 2410 nM.
As for `CC(C)(CO)Cc1cc(C(C)(C)C)c(O)c(C(C)(C)C)c1` [compound 58, 2,6-ditert-butyl-4-(3-hydroxy-2,2-dimethylpropyl)phenol], the EC50 stood at 350 nM.
Still for that read-out and setting: for `CC(C)(C=O)Cc1cc(C(C)(C)C)c(O)c(C(C)(C)C)c1` [compound 59, 3-(3,5-Ditert-butyl-4-hydroxyphenyl)-2,2-dimethylpropanal] the value was 928 nM; for `Brc1ccc(NC2C3CC4CC(C3)CC2C4)cc1` (centres unmarked) [compound 60, bromantane], 429 nM.
`COc1cc2c(cc1O)C(CCc1ccc(Cl)cc1)N(C)CC2` (centres unmarked) [compound 61, Ro 04-5595]: the EC50 worked out at 652 nM.
On the same count and under the same terms, for `COc1ccc2c(c1)CN(C)CC2c1ccc(Cl)c(Cl)c1` (centres unmarked) [compound 62, Diclofensine] the value was 3850 nM.
The same measure, in the same setting: for `CO[C@H]1/C=C/O[C@@]2(C)Oc3c(C)c(O)c4c(O)c(c5c(nc6cc(C)ccn65)c4c3C2=O)NC(=O)/C(C)=C\C=C\[C@H](C)[C@H](O)[C@@H](C)[C@@H](O)[C@@H](C)[C@H](OC(C)=O)[C@@H]1C` [compound 64, rifaximin] the value was 708 nM; for `CC(C)(C)CC(C)(C)c1ccc(O)c(Cc2ccc(Cl)cc2Cl)c1` [compound 65, clofoctol], 2230 nM; for `O=C1NC(=O)c2cc(Nc3ccccc3)c(Nc3ccccc3)cc21` [compound 66, CGP 52411], 202 nM.
As to `C=CC(=O)Nc1cc(Nc2nccc(-c3cn(C)c4ccccc34)n2)c(OC)cc1N(C)CCN(C)C` [compound 67, osimertinib], the concentration for a half-maximal effect (EC50) is 245 nM.
Still for that read-out and setting: the figure for `C=CC(=O)Nc1cccc(Nc2nc(Nc3ccc(NC4CN(CCF)C4)cc3OC)ncc2C(F)(F)F)c1` [compound 68, CNX-2006] is 366 nM; for `C=CC(=O)Nc1cccc(Oc2nc(Nc3ccc(N4CCN(C)CC4)cc3)nc3ccsc23)c1` [compound 70, Olmutinib] it is 485 nM.
Same read-out and setting: the figure for `CS(=O)(=O)CCNCc1ccc(-c2ccc3ncnc(Nc4ccc(OCc5cccc(F)c5)c(Cl)c4)c3c2)o1` [compound 71, lapatinib] is 5130 nM.
The same measure, in the same setting: the figure for `CCN1CCC(n2cc(CNc3cc(Cl)c4ncc(C#N)c(Nc5ccc(F)c(Cl)c5)c4c3)nn2)CC1` [compound 72, Cot inhibitor-2] is 77 nM; for `O=C1NC(=O)c2cc(Nc3ccc(F)cc3)c(Nc3ccc(F)cc3)cc21` [compound 73, CGP 53353] it is 168 nM.
As to `COc1ccc2c(c1)c(C1=C(c3c[nH]c4ccccc34)C(=O)NC1=O)cn2CCCN(C)C` [compound 74, Go 6983], the half-maximal effective concentration (EC50) worked out at 764 nM.
Consider `CN1CCN(Cc2ccc(-c3cnc4[nH]cc(-c5ccc6[nH]ccc6c5)c4c3)cc2)CC1` [compound 75, URMC-099], for which the EC50 turned out to be 377 nM.
Same read-out and setting: the figure for `COc1cc(N2CCC(N3CCN(C)CC3)CC2)ccc1Nc1ncc(Cl)c(Nc2ccccc2S(=O)(=O)C(C)C)n1` [compound 76, NVP-TAE684] is 480 nM; for `CNC(=O)c1ccccc1Nc1cc(Nc2ccc(N3CCOCC3)cc2OC)ncc1C(F)(F)F` [compound 77, PND-1186 (VS-4718)] it is 611 nM.
On the same count and under the same terms, the figure for `O=C1Nc2cc(Br)ccc2/C1=C1/Nc2ccccc2/C1=N\O` [compound 79, GSK-3-inhibitor-IX] is 559 nM.
Still for that read-out and setting: the figure for `CCOc1cc(N2CCC(O)CC2)ccc1Nc1ncc2c(n1)N(C1CCCC1)CCC(=O)N2C` [compound 80, Mps1-IN-1] is 452 nM; for `Cc1cc(N2CCOCC2)ccc1Nc1nc(NC2CCCCC2)c2nc[nH]c2n1` [compound 81, MPI-0479605] it is 688 nM.
Turning to `Cc1ccc(NC(=O)c2ccc(CN3CCN(C)CC3)cc2)cc1Nc1nc(-c2cccnc2)cs1` [compound 82, Masitinib (AB1010)], the EC50 was 916 nM.

The assay is the same for the next values; noted with them: RAG01 cell line; 72 hours incubation; CellTiter-Glo; percentage effect normalized to vehicle control; 10-point CRC from 10 μM; read-out: EC50.
Take `NC[C@@H]1O[C@H](C23CC4CC(CC(C4)C2)C3)Cc2c1ccc(O)c2O` [compound 39, A77636]: the EC50 amounted to 652 nM.
